Measurements as given in patent US4338331A, “Isoindoline derivative and a therapeutic composition thereof” (priority 1979, dated 1982).
Values joined by “and” are separate entries in the source; they are usually repeats but may differ in a detail not shown here. Equal entries are not always repeated.

Legend:
Type in all cases: in vivo, Wistar rat
female Wistar rats [1] = test: Effect on spontaneous diuresis (TABLE 3); details: 5 mg/kg oral; for Excreted sodium/potassium ratio: 12 h; for Potassium excretion / Sodium excretion: spontaneous diuresis
Protocol: These investigations were carried out on Wistar rats of both sexes, having a body weight which is specified in each case in the relative tables, which compare the results with Indapamide. Both the CM/1 and the Indapamide were administered orally after being suitably dissolved in the following solvent:
(§1) The controls were treated with an equal volume of solvent. The experiments were carried out on animals which had regularly fasted for at least 12 hours, but had free access to water.
(§2) The sodium and potassium in the urine were determined by a photometric method.
Finally, the effect on the new product of spontaneous diuresis was determined.
These investigations were carried out on 15 female Wistar rats having a body weight varying from 230 to 260 g, and divided at random into three groups of 5. The animals were kept in individual metabolic cages overnight for a period of 12 hours in order to collect the urine spontaneously excreted. One group was treated as usual with 1 ml/kg of solvent by means of a gastric probe, and the other two were treated respectively with 5 mg/kg of Indapamide and 5 mg/kg of CM/1. The sodium and potassium were analysed as usual in the urine collected.

male rats = test: Diuretic and saluretic activity: excretion of a load of distilled water (TABLE 2); details: 5 mg/kg oral + aqueous load
Protocol: (§3) Both the CM/1 and the Indapamide were administered orally after being suitably dissolved in the following solvent:
as §1, §2
The rats were then immediately placed in individual metabolic cages. The urine was collected over 4 hours. The quantity has been expressed in the usual manner as a percentage of the volume administered.
Sodium and potassium were also analysed, and these have been expressed as mEq/4h.
After two days, in the preceding manner, the same rats were treated with Indapamide, and after a further two days with the product CM/1. In the interval between one test and the other, the rats were housed and fed in the normal manner. The dose used for both compounds was the same as previously, i.e. 5 mg/kg.

female Wistar rats [2] = test: Diuretic and saluretic activity: excretion of an aqueous saline load (TABLE 1); details: 5 mg/kg oral
Protocol: as §3, §1, §2
The effect on the excretion of an aqueous saline load was first checked. 18 female Wistar rats were used divided into three groups, one of 8 and two of 5, and these were treated in the following manner:
GROUP A: CONTROLS 1 ml of solvent made up to 50 ml with 0.9% sodium chloride solution, administered by gastric probe, per kg of body weight (=50 ml/kg in terms of volume);
GROUP B: INDAPAMIDE 5 mg/kg in 1 ml/kg of solvent made up to 50 ml/kg with sodium chloride solution, administered by gastric probe;
GROUP C: CM/1,5 mg/kg using the same method as for the Indapamide.
The rats were placed immediately in individual metabolic cages for collecting the urine during the three hours subsequent to the load. The quantity of urine excreted is given as a percentage of the quantity administered. The sodium and potassium are expressed in mEq/3h.
Values of P less than 0.05 have been considered significant.

[3] = saline load, mean ± standard error, n = 5

CC1Cc2ccccc2N1NC(=O)c1ccc(Cl)c(S(N)(=O)=O)c1 (stereo not drawn) [Indapamide, N-(3-sulphamyl-4-chlorobenzamido)-2-methylindoline, reference compound]
diuretic action (female Wistar rats [1]): marked diuretic action
sodium and potassium excretion (female Wistar rats [1]): increased
Excreted sodium/potassium ratio (female Wistar rats [1]; individual rats): 1.170 and 1.417 and 1.803 and 1.346 and 1.555
Excreted sodium/potassium ratio (female Wistar rats [1]; mean ± standard error, n = 5): 1.4582 ± 0.106
ml of urine collected in 12 hours (female Wistar rats [1]; individual rats): 11.5 mL and 13.7 mL and 18.6 mL and 14.5 mL and 15.5 mL
ml of urine collected in 12 hours (female Wistar rats [1]; mean ± standard error, n = 5): 14.76 ± 1.16 mL
Potassium excretion (female Wistar rats [1]; individual rats): 4.560 mEq/12h and 3.356 mEq/12h and 3.760 mEq/12h and 5.776 mEq/12h and 4.352 mEq/12h
Sodium excretion (female Wistar rats [1]; individual rats): 5.335 mEq/12h and 4.756 mEq/12h and 6.780 mEq/12h and 7.775 mEq/12h and 6.767 mEq/12h
Potassium excretion (female Wistar rats [1]; mean ± standard error, n = 5): 4.3608 ± 0.413 mEq/12h
Sodium excretion (female Wistar rats [1]; mean ± standard error, n = 5): 6.2826 ± 0.544 mEq/12h
diuretic and saluretic action (male rats): significant diuretic and saluretic action
RATIO Na/K (sodium to potassium excreted) (male rats; 4 h, average): 1.6764
Cumulative percent excretion at 1 hour from load (male rats; individual rats): 25.8% and 35.7% and 0.0% and 27.6% and 51.6%
Cumulative percent excretion at 2 hours from load (male rats; individual rats): 83.9% and 92.8% and 42.9% and 82.8% and 101.7%
Cumulative percent excretion at 3 hours from load (male rats; individual rats): 116.1% and 107.2% and 85.8% and 110.4% and 121.1%
Cumulative percent excretion at 4 hours from load (male rats; individual rats): 138.7% and 107.2% and 114.4% and 110.4% and 140.5%
Potassium excretion (male rats; individual rats): 0.00998 mEq/4h and 0.00543 mEq/4h and 0.00814 mEq/4h and 0.00692 mEq/4h and 0.01579 mEq/4h
Sodium excretion (male rats; individual rats): 0.01808 mEq/4h and 0.00771 mEq/4h and 0.01403 mEq/4h and 0.01077 mEq/4h and 0.02694 mEq/4h
Cumulative percent excretion at 1 hour from load (male rats; mean of 5 rats): 28.14%
Cumulative percent excretion at 2 hours from load (male rats; mean of 5 rats): 80.82%
Cumulative percent excretion at 3 hours from load (male rats; mean of 5 rats): 108.12%
Cumulative percent excretion at 4 hours from load (male rats; mean of 5 rats): 122.24 ± 4.47%
Potassium excretion (male rats; mean of 5 rats): 0.009252 mEq/4h
Sodium excretion (male rats; mean of 5 rats): 0.01551 mEq/4h
Urine excretion of load in percent of quantity administered (cumulative excretion), 1 hour (female Wistar rats [2]; individual rats): 16.7% and 12.5% and 8.7% and 6.7%
Urine excretion of load in percent of quantity administered (cumulative excretion), 2 hours (female Wistar rats [2]; individual rats): 50.0% and 37.5% and 26.1% and 30.8% and 52.2%
Urine excretion of load in percent of quantity administered (cumulative excretion), 3 hours (female Wistar rats [2]; individual rats): 83.3% and 81.2% and 65.2% and 69.2% and 100.0%
Urine excretion of load in percent of quantity administered (cumulative excretion), 1 hour (female Wistar rats [2]; mean ± standard error, n = 5): 10.66 ± 1.77%
Urine excretion of load in percent of quantity administered (cumulative excretion), 2 hours (female Wistar rats [2]; mean ± standard error, n = 5): 39.32 ± 5.15%
diuretic and saluretic effect (female Wistar rats [2]; relative to the controls): significant diuretic and saluretic effect relative to the controls
ratio of the sodium to the potassium excreted during the 3 hours (female Wistar rats [2]; saline load): 4.48
Potassium excretion (female Wistar rats [2]; saline load, individual rats): 0.36 mEq/3h and 0.38 mEq/3h and 0.28 mEq/3h and 0.31 mEq/3h and 0.33 mEq/3h
Sodium excretion (female Wistar rats [2]; saline load, individual rats): 1.50 mEg/3h and 1.45 mEg/3h and 1.33 mEg/3h and 1.61 mEg/3h and 1.55 mEg/3h
Potassium excretion (female Wistar rats [2]; [3]): 0.332 ± 0.0177 mEq/3h
Sodium excretion (female Wistar rats [2]; [3]): 1.488 ± 0.047 mEg/3h
excreted sodium and potassium (female Wistar rats [2]; versus controls): significantly higher than the controls
